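Protocol summary: plate cells (96-well), add compound at 5 concentrations, incubate 48 h, interpolate endpoints linearly. TGI denotes the concentration required for complete inhibition of growth.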
Legend:
Experiment in all cases: NCI tumour cell line growth inhibition, 48 h
HCT-116 colon = test system: HCT-116 colon
OVCAR-3 ovarian = test system: OVCAR-3 ovarian
TK-10 renal = test system: TK-10 renal
PC-3 prostate = test system: PC-3 prostate
OVCAR-8 ovarian = test system: OVCAR-8 ovarian
786-0 renal = test system: 786-0 renal
SW-620 colon = test system: SW-620 colon
LOX IMVI melanoma = test system: LOX IMVI melanoma
SF-268 CNS = test system: SF-268 CNS
EKVX NSCLC = test system: EKVX NSCLC
MDA-MB-435 = test system: MDA-MB-435
OVCAR-4 ovarian = test system: OVCAR-4 ovarian
HT29 colon = test system: HT29 colon
U251 CNS = test system: U251 CNS
CAKI-1 renal = test system: CAKI-1 renal
HL-60(TB) leukemia = test system: HL-60(TB) leukemia
K-562 leukemia = test system: K-562 leukemia
SN12C renal = test system: SN12C renal
MDA-MB-231 breast = test system: MDA-MB-231 breast
SK-MEL-28 melanoma = test system: SK-MEL-28 melanoma
RPMI-8226 leukemia = test system: RPMI-8226 leukemia
SNB-19 CNS = test system: SNB-19 CNS
A549 NSCLC = test system: A549 NSCLC
CCRF-CEM leukemia = test system: CCRF-CEM leukemia
SF-295 CNS = test system: SF-295 CNS
NCI-H23 lung = test system: NCI-H23 lung
HCC-2998 colon = test system: HCC-2998 colon
NCI-H460 lung = test system: NCI-H460 lung
KM12 colon = test system: KM12 colon
MALME-3M melanoma = test system: MALME-3M melanoma
SNB-75 CNS = test system: SNB-75 CNS
MOLT-4 leukemia = test system: MOLT-4 leukemia
ACHN renal = test system: ACHN renal
SK-MEL-2 melanoma = test system: SK-MEL-2 melanoma
MCF7 breast = test system: MCF7 breast
M14 melanoma = test system: M14 melanoma
UACC-257 melanoma = test system: UACC-257 melanoma
NCI/ADR-RES ovarian = test system: NCI/ADR-RES ovarian
OVCAR-5 ovarian = test system: OVCAR-5 ovarian
UO-31 renal = test system: UO-31 renal
HS 578T breast = test system: HS 578T breast
DU-145 prostate = test system: DU-145 prostate
IGROV1 ovarian = test system: IGROV1 ovarian
HCT-15 colon = test system: HCT-15 colon
NCI-H522 lung = test system: NCI-H522 lung
SK-MEL-5 melanoma = test system: SK-MEL-5 melanoma
A498 renal = test system: A498 renal
SR leukemia = test system: SR leukemia
SF-539 CNS = test system: SF-539 CNS
RXF 393 renal = test system: RXF 393 renal
T-47D breast = test system: T-47D breast
HOP-62 NSCLC = test system: HOP-62 NSCLC
MDA-N = test system: MDA-N
BT-549 breast = test system: BT-549 breast
HOP-92 NSCLC = test system: HOP-92 NSCLC
UACC-62 melanoma = test system: UACC-62 melanoma
COLO 205 colon = test system: COLO 205 colon
SK-OV-3 ovarian = test system: SK-OV-3 ovarian
NCI-H226 lung = test system: NCI-H226 lung

Measured: TGI

CC1=NN(C(=O)CC(=O)Nc2cccc(Cl)c2)C(=O)C1N=Nc1ccc(C(=O)O)cc1 (stereo not given)
not listed: SK-OV-3 ovarian | NCI-H226 lung
> 100 µM: all other assays above

Cc1cc(-c2nc3cccc(F)c3s2)ccc1N
> 88.2 µM: HOP-92 NSCLC
99.4 µM: SNB-75 CNS
> 86 µM: SF-268 CNS
> 96.1 µM: MOLT-4 leukemia
> 90.8 µM: HS 578T breast
> 91.1 µM: SN12C renal
80.5 µM: CCRF-CEM leukemia
> 74.8 µM: SR leukemia
not listed: NCI-H23 lung
> 100 µM: all other assays above
